Source: patent US20240166602A1, “SUBSTITUTED DIARYL COMPOUND AS WELL AS PREPARATION METHOD AND APPLICATION THEREOF” (SHANDONG FIRST MEDICAL UNIV & SHANDONG ACADEMY OF MEDICAL …, priority 2021, published 2024)
“Also recorded” adds a separate entry of the source.

Legend:
Format in all cases: cell-based
[1] = test system: human melanoma (A375) cells; experiment: MTT tumor cell growth inhibition, human melanoma (A375); conditions: Homo sapiens, A-375; A375, 48 h culture, MTT method; read-out: IC50 value of target compound against cancer cell proliferation, A375
Description: (§1) Dissolve CHJ compound series with dimethyl sultbxide (DMSO, final concentration 0.4%), and use RPMI-1640 culture medium containing 15% fetal calf serum to prepare 1 mg/mL solution for future use. During drug administration in groups, use the culture medium to dilute it to the concentration needed.
(§2) Cell lines: human lung cancer (A549), Inman ovarian cancer (SKOV3), human melanoma (A375) and human colon cancer (LOVO) cell lines, all purchased from the Cell Bank of the Chinese Academy of Sciences, DMEM containing 15% fetal bovine serum (High Glucose) culture medium, placed in a 37° C., 5% CO2 incubator.
(§3) MTT is an oxidizing yellow dye with the chemical name of 3-(4,5-dimethyl-2-thiazolyl)-2,5-diphenyl-2-H-tetrazoliumbromide tetrazole bromide. The MMT method, also known as the MTT colorimetric method, can test the survival and growth of cells. The method is simple and easily accessible and often used to screet the substance with cytotoxic activity. The basic principle of testing, is that succinodehydrogenase can reduce exogenous MIT so that MTT is reduced to blueviolet crystal Formazan insoluble to water. The crystal deposits in cells. The succinodehydrogenase exists in the mitochondria of living cells, not in the dead cells. Therefore, the chromogenic reaction can only take place in living cells. Then, dissolve the blueviolet crystal Formazan contained in cells with dimethyl sulfoxide (DMSO), and measure its absorbancy with microplate reader so that the count of living cells is reflected indirectly. Within the scope of certain cell count, the amount of blueviolet crystal Formazan formed is positively correlated to the count of living cells.
(§4) Human lung cancer (A549), human ovarian cancer (SKOV3), human melanoma (A375) and human colon cancer (LOVO) ceilsare all adherent. Based on the growth rate of tumor cells, wash the adherent tumor cells in the logarithmic phase and digest them in 0.25% EDTA pancreatic enzyme. Adjust the cell count to 1×10^5/mL and inoculate the cells in 96-pore plate, each pore containing 100 μL. Culture the cells in the 37° C. CO2 incubator, and administer the drug 24 h later. Add pharmaceutical (CJH compound series) of different concentrations to the administration group. Set up 5 dosage groups for each pharmaceutical, respectively 100, 10, 1, 0.1, 0.01 μmol/L. Set up three complex pores for each concentration. Set up blank control, DMSO (0.8%) solvent control and cis-platinum positive control. After 48 h of culture in the 37 ° C. incubator containing 5% CO2, measure the OD value through MTT method and calculate the cell inhibition ratio.
(§5) After 48 h of culture of human lung cancer (A549), human ovarian cancer (SKOV3). human melanoma (A375) and human colon cancer (LOVO) cells, stop it and add 10 μL 0.5% MTT solution to each pore. Place it in the CO2 incubator for 4 h. Remove the liquid from each pore, respectively add 0.2 mL DMSO solution, and oscillate it adequately on the table concentrator under low frequency so that the blueviolet crystal Formazan is dissolved adequately. Place it in the microplate reader and record the OD value at the wavelength of […]. Calculate the average OD value of three parallel pores of different concentrations, and calculate the cell inhibition ratio and IC50 of each tested pharmaceutical under different concentrations based on the average.
(§6) Inhibition ratio (%)=[1-tested sample OD/negative control group OD]×100%.

[2] = test system: human ovarian cancer (SKOV3) cells; experiment: MTT tumor cell growth inhibition, human ovarian cancer (SKOV3); conditions: Homo sapiens, SK-OV-3; SKOV3, 48 h culture, MTT method; read-out: IC50 value of target compound against cancer cell proliferation, SKOV3
Description: as §1, §2, §3, §4, §5, §6

[3] = test system: human lung cancer (A549) cells; experiment: MTT tumor cell growth inhibition, human lung cancer (A549); conditions: Homo sapiens; A549, 48 h culture, MTT method; read-out: IC50 value of target compound against cancer cell proliferation, A549
Description: as §1, §2, §3, §4, §5, §6

[4] = test system: human colon cancer (LOVO) cells; experiment: MTT tumor cell growth inhibition, human colon cancer (LOVO); conditions: Homo sapiens, 48 h culture, MTT method, read-out: IC50 value of target compound against cancer cell proliferation, LOVO
Description: as §1, §2, §3, §4, §5, §6

[5] = test system: human lung cancer (A549), human ovarian cancer (SKOV3), human melanoma (A375) and human colon cancer (LOVO) cells; experiment: MTT tumor cell growth inhibition, overall comment on the four cell lines; conditions: summary of the IC50 data over A549, SKOV3, A375, LOVO
Description: as §1, §2, §3
as §4, with “After 48 h of culture in the 37 ° C. incubator containing 5% CO2, measure the OD value through MTT method and calculate the cell inhibition ratio.” left out
After 48 h of culture of human lung cancer (A549), human ovarian cancer (SKOV3). human melanoma (A375) and human colon cancer (LOVO) cells, stop it and add 10 μL 0.5% MTT solution to each pore. […] Place it in the microplate reader and record the OD value at the wavelength of […]. […]

CCCc1ccc(OCC(O)CN(C)Cc2ccc(OCCN3CCC(C)CC3)c(OC)c2)c(OC)c1 (stereo not shown) [CHJ03011, 1-((3-methoxy-4-(2-(4-methylpiperidin-1-yl)ethoxy)benzyl)(methyl)amino)-3-(2-methoxy-4-propylphenoxy)propan-2-ol]
IC50 [1]: 1.82 ± 1.23 µM | IC50 [2]: 21.2 ± 1.08 µM | IC50 [3]: 10.56 ± 0.02 µM | IC50 [4]: 15.2 ± 1.78 µM | anti-cancer activity, in words [5]: still effective against cancer

COc1cc(CN(C)CC(O)COc2c(Br)cc(Br)cc2Br)ccc1OCCN1CCC(C)CC1 (stereo not shown) [CHJ04022, 1-((3-methoxy-4-(2-(4-methylpiperidin-1-yl)ethoxy)benzyl)(methy)amino)-3-(2,4,6-tribromnophenoxy)propan-2-ol]
IC50 [1]: 0.05 ± 0.01 µM | IC50 [2]: 1.03 ± 0.24 µM | IC50 [3]: 1.88 ± 0.19 µM | IC50 [4]: 0.69 ± 0.03 µM | anti-cancer activity, in words [5]: the most active, as active as the cis-platinum in the control group

COc1cc(CN(C)CC(O)COc2ccc(NC(C)=O)cc2)ccc1OCCN1CCC(C)CC1 (stereo not shown) [CHJ04061, N-(4-2-hydroxy 3-((3-methoxy-4-(2-(4-methylpiperidin-1-yl)ethoxy)benzyl)(methyl)amino)propoxy)phenypacetamide]
IC50 [2]: 143 ± 3.1 µM | IC50 [3]: 333.1 ± 2.7 µM | IC50 [4]: 97.1 ± 4.21 µM | anti-cancer activity, in words [5]: lowered prominently

COc1cc(CN(C)CC(O)COc2c(Br)cc(Br)cc2Br)ccc1OCCN1CCCC1 (stereo not shown) [CHJ04068, 1-((3-methoxy-4-(2-(pyrrolidin-1-yl)ethoxy)henzyl)(methyl)amino)-3-(2,4,6-tribromophenoxy)propan-2-ol]
IC50 [1]: 1.54 ± 1.34 µM | IC50 [2]: 4.21 ± 1.23 µM | IC50 [3]: 5.46 ± 1.76 µM | IC50 [4]: 0.52 ± 0.4 µM | anti-cancer activity, in words [5]: lowered prominently; also recorded: the most active, as active as the cis-platinum in the control group
